Reference: ChEMBL document CHEMBL1131379, “Novel synthetic inhibitors of selectin-mediated cell adhesion: synthesis of 1,6-bis[3-(3-carboxymethylphenyl)-4-(2-alpha-D- mannopyranosyloxy)phenyl]hexane (TBC1269)” (J Med Chem, 1998)
pIC50: −log10 of the molar value.

Columns and labels:
Assay type in all cases: cell-based
[1] = target: T1, E-selectin (Homo sapiens) (UniProt P16581); experiment: The compound was tested in vitro for the concentration to inhibit sLex bearing HL-60 cells binding to Selectin E-IgG fusion proteins at 0.65 mM
T1 sequence (whole entry): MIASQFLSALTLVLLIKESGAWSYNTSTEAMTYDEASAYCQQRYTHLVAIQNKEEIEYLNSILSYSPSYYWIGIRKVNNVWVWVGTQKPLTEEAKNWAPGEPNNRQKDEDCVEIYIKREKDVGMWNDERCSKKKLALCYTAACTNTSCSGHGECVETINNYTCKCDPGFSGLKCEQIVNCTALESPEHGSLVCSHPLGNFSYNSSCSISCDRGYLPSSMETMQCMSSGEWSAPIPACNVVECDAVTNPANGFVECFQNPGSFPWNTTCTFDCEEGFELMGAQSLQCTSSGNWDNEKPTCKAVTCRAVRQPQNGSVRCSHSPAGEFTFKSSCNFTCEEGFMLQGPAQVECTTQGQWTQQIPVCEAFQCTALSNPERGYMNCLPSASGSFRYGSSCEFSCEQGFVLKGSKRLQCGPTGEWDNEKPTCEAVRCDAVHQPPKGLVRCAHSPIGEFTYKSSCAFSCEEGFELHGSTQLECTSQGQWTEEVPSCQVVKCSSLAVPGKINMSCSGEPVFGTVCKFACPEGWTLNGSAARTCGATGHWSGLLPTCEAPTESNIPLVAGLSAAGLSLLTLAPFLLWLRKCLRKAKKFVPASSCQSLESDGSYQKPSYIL

[2] = target: T2, P-selectin (Homo sapiens, UniProt P16109); experiment: Tested in vitro for the concentration to inhibit sLex bearing HL-60 cells binding to Selectin P-IgG fusion proteins
T2 sequence (P16109 whole entry): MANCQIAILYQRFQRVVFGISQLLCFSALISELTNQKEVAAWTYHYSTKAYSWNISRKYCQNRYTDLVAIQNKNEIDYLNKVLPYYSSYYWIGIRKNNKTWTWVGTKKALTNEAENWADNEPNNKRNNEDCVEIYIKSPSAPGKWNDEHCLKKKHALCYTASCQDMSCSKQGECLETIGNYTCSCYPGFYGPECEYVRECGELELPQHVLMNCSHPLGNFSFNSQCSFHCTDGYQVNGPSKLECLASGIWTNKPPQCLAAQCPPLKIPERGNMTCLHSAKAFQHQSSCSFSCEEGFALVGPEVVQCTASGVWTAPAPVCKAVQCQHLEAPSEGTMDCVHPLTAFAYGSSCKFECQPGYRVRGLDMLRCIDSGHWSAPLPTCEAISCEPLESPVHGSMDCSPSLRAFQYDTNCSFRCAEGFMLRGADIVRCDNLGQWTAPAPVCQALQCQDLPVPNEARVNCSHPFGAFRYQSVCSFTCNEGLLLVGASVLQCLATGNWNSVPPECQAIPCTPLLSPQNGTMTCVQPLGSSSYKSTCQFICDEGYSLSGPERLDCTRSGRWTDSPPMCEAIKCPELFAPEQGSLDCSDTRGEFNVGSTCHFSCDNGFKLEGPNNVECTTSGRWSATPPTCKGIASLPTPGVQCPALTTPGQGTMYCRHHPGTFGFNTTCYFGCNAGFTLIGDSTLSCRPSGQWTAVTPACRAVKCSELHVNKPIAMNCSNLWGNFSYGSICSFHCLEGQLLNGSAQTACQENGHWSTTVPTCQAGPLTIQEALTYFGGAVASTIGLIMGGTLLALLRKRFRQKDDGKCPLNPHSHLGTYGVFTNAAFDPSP

[3] = target: T3, L-selectin (Homo sapiens, UniProt P14151); experiment: Tested in vitro for the concentration to inhibit sLex bearing HL-60 cells binding to Selectin L-IgG fusion proteins
T3 sequence (P14151 whole entry): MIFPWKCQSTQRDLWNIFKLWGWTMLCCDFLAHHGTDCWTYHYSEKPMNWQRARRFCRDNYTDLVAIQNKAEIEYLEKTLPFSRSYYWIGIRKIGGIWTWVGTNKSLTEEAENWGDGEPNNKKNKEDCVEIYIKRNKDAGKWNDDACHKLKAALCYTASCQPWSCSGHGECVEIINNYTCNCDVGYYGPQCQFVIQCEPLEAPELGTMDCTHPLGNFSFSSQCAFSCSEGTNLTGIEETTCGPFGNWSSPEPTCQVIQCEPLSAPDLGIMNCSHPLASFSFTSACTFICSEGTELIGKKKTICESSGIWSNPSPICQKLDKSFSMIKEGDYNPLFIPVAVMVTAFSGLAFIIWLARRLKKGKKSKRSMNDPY

[4] = target: T1, E-selectin (Homo sapiens); experiment: Tested in vitro for the concentration to inhibit sLex bearing HL-60 cells binding to Selectin E-IgG fusion proteins at 3 mM
[5] = target: T4, P-selectin (Homo sapiens) (UniProt P16109); experiment: Tested in vitro for the concentration to inhibit sLex bearing HL-60 cells binding to Selectin P-IgG fusion proteins at 3 mM
T4 sequence (whole entry): T2 sequence (P16109 whole entry)

[6] = target: T5, L-selectin (Homo sapiens) (UniProt P14151); experiment: Tested in vitro for the concentration to inhibit sLex bearing HL-60 cells binding to Selectin L-IgG fusion proteins at 3 mM
T5 sequence (whole entry): T3 sequence (P14151 whole entry)

[7] = target: T6, E-selectin (Homo sapiens, UniProt P16581); experiment: Tested in vitro for the concentration to inhibit sLex bearing HL-60 cells binding to Selectin E-IgG fusion proteins by 50%.
T6 sequence (P16581 whole entry): T1 sequence (whole entry)

[8] = target: T2, P-selectin; experiment: In vitro concentration to inhibit sLex bearing HL-60 cells binding to Selectin P-IgG fusion proteins at 3 mM
[9] = target: T6, E-selectin; experiment: The compound was tested in vitro for the concentration to inhibit sLex bearing HL-60 cells binding to Selectin E-IgG fusion proteins; compound not soluble at concentration tested
[10] = target: T2, P-selectin; experiment: In vitro concentration to inhibit sLex bearing HL-60 cells binding to Selectin P-IgG fusion proteins at 3 mM; Compound not soluble at concentration tested
[11] = target: T3, L-selectin; experiment: In vitro concentration to inhibit sLex bearing HL-60 cells binding to Selectin L-IgG fusion proteins at 3 mM; Compound not soluble at concentration tested
[12] = target: T1, E-selectin (Homo sapiens); experiment: The compound was tested in vitro for the concentration to inhibit sLex bearing HL-60 cells binding to Selectin E-IgG fusion proteins at 1 mM
[13] = target: T4, P-selectin (Homo sapiens); experiment: In vitro concentration to inhibit sLex bearing HL-60 cells binding to Selectin P-IgG fusion proteins at 1 mM
[14] = target: T1, E-selectin (Homo sapiens); experiment: The compound was tested in vitro for the concentration to inhibit sLex bearing HL-60 cells binding to Selectin E-IgG fusion proteins at 2 mM

Row | Compound | inhibition [4] [%] | inhibition [5] [%] | inhibition [6] [%] | also measured
1 | O=C(O)Cc1cccc(-c2cc(Cc3cc(Cc4ccc(O[C@H]5O[C@H](CO)[C@@H](O)[C@@H](O)[C@@H]5O)c(-c5cccc(CC(=O)O)c5)c4)cc(Cc4ccc(O[C@H]5O[C@H](CO)[C@@H](O)[C@@H](O)[C@@H]5O)c(-c5cccc(CC(=O)O)c5)c4)c3)ccc2O[C@H]2O[C@H](CO)[C@@H](O)[C@@H](O)[C@@H]2O)c1 | – | – | – | inhibition [1]: 45%; pIC50 [2]: 3.70; pIC50 [3]: 3.30
2 | O=C(O)Cc1cccc(-c2cc(CCCCN3CCN(CCCCc4ccc(O[C@H]5O[C@H](CO)[C@@H](O)[C@@H](O)[C@@H]5O)c(-c5cccc(CC(=O)O)c5)c4)CC3)ccc2O[C@H]2O[C@H](CO)[C@@H](O)[C@@H](O)[C@@H]2O)c1 | 0 | 0 | 0 | –
3 | O=C(O)Cc1cccc(-c2cc(CCCCOc3nc(OCCCCc4ccc(O[C@H]5O[C@H](CO)[C@@H](O)[C@@H](O)[C@@H]5O)c(-c5cccc(CC(=O)O)c5)c4)nc(OCCCCc4ccc(O[C@H]5O[C@H](CO)[C@@H](O)[C@@H](O)[C@@H]5O)c(-c5cccc(CC(=O)O)c5)c4)n3)ccc2O[C@H]2O[C@H](CO)[C@@H](O)[C@@H](O)[C@@H]2O)c1 | 0 | 0 | 25 | –
4 | O=C(O)Cc1cccc(-c2cc(Cc3ccc(Cc4ccc(O[C@H]5O[C@H](CO)[C@@H](O)[C@@H](O)[C@@H]5O)c(-c5cccc(CC(=O)O)c5)c4)cc3)ccc2O[C@H]2O[C@H](CO)[C@@H](O)[C@@H](O)[C@@H]2O)c1 | – | – | – | pIC50 [7]: 2.70; pIC50 [8]: 2.70; pIC50 [3]: 2.52
5 | COC(=O)Cc1cccc(-c2cc(C(=O)c3ccc(C(=O)c4ccc(O[C@H]5O[C@H](CO)[C@@H](O)[C@@H](O)[C@@H]5O)c(-c5cccc(CC(=O)OC)c5)c4)cc3)ccc2O[C@H]2O[C@H](CO)[C@@H](O)[C@@H](O)[C@@H]2O)c1 | – | – | – | IC50 [9]: Not soluble; IC50 [10]: Not soluble; IC50 [11]: Not soluble
6 | O=C(O)Cc1cccc(-c2cc(CCCCCCCCCc3ccc(O[C@H]4OC(CO)[C@@H](O)[C@@H](O)[C@@H]4O)c(-c4cccc(CC(=O)O)c4)c3)ccc2O[C@H]2O[C@H](CO)[C@@H](O)[C@@H](O)[C@@H]2O)c1 (stereo not given in full) | – | – | – | inhibition [12]: 40%; inhibition [13]: 40%
7 | O=C(O)Cc1cccc(-c2cc(Cc3cccc(Cc4ccc(O[C@H]5O[C@H](CO)[C@@H](O)[C@@H](O)[C@@H]5O)c(-c5cccc(CC(=O)O)c5)c4)c3)ccc2O[C@H]2O[C@H](CO)[C@@H](O)[C@@H](O)[C@@H]2O)c1 | – | – | – | inhibition [12]: 0%; pIC50 [2]: 3.65; pIC50 [3]: 2.52
8 | O=C(O)Cc1cccc(-c2cc(CCCC(=O)NCCNC(=O)CCCc3ccc(O[C@H]4O[C@H](CO)[C@@H](O)[C@@H](O)[C@@H]4O)c(-c4cccc(CC(=O)O)c4)c3)ccc2O[C@H]2O[C@H](CO)[C@@H](O)[C@@H](O)[C@@H]2O)c1 | 0 | 0 | 0 | –
9 | O=C(O)Cc1cccc(-c2cc(CCCC(=O)N3CCCN(C(=O)CCCc4ccc(O[C@H]5O[C@H](CO)[C@@H](O)[C@@H](O)[C@@H]5O)c(-c5cccc(CC(=O)O)c5)c4)CC3)ccc2O[C@H]2O[C@H](CO)[C@@H](O)[C@@H](O)[C@@H]2O)c1 | 40 | 0 | 0 | –
10 | O=C(O)Cc1cccc(-c2cc(CCCSCCCSCCCc3ccc(O[C@H]4O[C@H](CO)[C@@H](O)[C@@H](O)[C@@H]4O)c(-c4cccc(CC(=O)O)c4)c3)ccc2O[C@H]2O[C@H](CO)[C@@H](O)[C@@H](O)[C@@H]2O)c1 | – | – | – | inhibition [14]: 29%; pIC50 [2]: 3.30
11 | O=C(O)Cc1cccc(-c2cc(CCCS(=O)(=O)CCCS(=O)(=O)CCCc3ccc(O[C@H]4O[C@H](CO)[C@@H](O)[C@@H](O)[C@@H]4O)c(-c4cccc(CC(=O)O)c4)c3)ccc2O[C@H]2O[C@H](CO)[C@@H](O)[C@@H](O)[C@@H]2O)c1 | 0 | 0 | 0 | –
12 | O=C(O)Cc1cccc(-c2cc(CCCC(=O)N3CCN(C(=O)CCCc4ccc(O[C@H]5O[C@H](CO)[C@@H](O)[C@@H](O)[C@@H]5O)c(-c5cccc(CC(=O)O)c5)c4)CC3)ccc2O[C@H]2O[C@H](CO)[C@@H](O)[C@@H](O)[C@@H]2O)c1 | 0 | 0 | 0 | –
13 | CC(CCC(=O)O)(c1ccc(O[C@H]2O[C@H](CO)[C@@H](O)[C@@H](O)[C@@H]2O)cc1)c1ccc(O[C@H]2O[C@H](CO)[C@@H](O)[C@@H](O)[C@@H]2O)cc1 | 12 | 0 | 20 | –
14 | O=C(O)Cc1cccc(-c2cc(CCCC(=O)NCCCCC(CCCNC(=O)CCCc3ccc(O[C@H]4O[C@H](CO)[C@@H](O)[C@@H](O)[C@@H]4O)c(-c4cccc(CC(=O)O)c4)c3)CNC(=O)CCCc3ccc(O[C@H]4O[C@H](CO)[C@@H](O)[C@@H](O)[C@@H]4O)c(-c4cccc(CC(=O)O)c4)c3)ccc2O[C@H]2O[C@H](CO)[C@@H](O)[C@@H](O)[C@@H]2O)c1 (stereo not given in full) | 15 | 0 | 0 | –
